# Measurements published in ChEMBL document CHEMBL5653615 (J Biol Chem, 2013).
# Assays:
# [1] = molecular target: T1, Tyrosine-protein kinase ITK/TSK (Homo sapiens) (UniProt Q08881); assay: Inhibition of human ITK at 18.6 nM by HotSpot assay relative to control
# T1 sequence (whole entry): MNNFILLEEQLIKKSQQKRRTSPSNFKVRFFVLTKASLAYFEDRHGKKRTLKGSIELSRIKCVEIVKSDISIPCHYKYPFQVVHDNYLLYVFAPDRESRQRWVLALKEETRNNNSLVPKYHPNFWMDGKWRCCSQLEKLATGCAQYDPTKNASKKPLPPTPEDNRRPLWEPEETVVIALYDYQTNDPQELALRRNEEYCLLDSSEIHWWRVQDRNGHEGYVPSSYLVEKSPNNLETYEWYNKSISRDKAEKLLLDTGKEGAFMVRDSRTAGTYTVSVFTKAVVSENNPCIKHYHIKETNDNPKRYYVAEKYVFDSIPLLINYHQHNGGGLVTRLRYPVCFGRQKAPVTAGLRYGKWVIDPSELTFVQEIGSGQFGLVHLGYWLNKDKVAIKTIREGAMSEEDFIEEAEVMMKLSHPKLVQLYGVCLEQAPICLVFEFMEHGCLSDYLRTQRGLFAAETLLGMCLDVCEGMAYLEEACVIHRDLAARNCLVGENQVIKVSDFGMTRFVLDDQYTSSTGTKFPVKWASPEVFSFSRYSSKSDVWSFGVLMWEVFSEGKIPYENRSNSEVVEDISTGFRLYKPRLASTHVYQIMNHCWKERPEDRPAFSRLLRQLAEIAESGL
# [2] = molecular target: T2, Phosphorylase b kinase gamma catalytic chain, liver/testis isoform (Homo sapiens) (UniProt P15735); assay: Inhibition of human PHKg2 at 18.6 nM by HotSpot assay relative to control
# T2 sequence (whole entry): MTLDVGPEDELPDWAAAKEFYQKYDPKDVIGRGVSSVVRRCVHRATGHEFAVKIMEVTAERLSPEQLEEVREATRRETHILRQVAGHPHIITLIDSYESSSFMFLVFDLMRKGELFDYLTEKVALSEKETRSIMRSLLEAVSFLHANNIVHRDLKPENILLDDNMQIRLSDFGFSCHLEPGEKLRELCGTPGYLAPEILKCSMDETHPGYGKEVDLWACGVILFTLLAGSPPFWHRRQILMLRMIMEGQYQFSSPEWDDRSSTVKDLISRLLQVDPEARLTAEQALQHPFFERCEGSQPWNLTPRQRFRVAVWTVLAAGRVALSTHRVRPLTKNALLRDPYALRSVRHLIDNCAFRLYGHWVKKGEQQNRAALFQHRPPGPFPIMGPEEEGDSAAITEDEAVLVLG
# [3] = molecular target: T3, cGMP-dependent protein kinase 1 (Homo sapiens) (UniProt Q13976); assay: Inhibition of human PKG1a at 1.82 nM by HotSpot assay relative to control
# T3 sequence (whole entry): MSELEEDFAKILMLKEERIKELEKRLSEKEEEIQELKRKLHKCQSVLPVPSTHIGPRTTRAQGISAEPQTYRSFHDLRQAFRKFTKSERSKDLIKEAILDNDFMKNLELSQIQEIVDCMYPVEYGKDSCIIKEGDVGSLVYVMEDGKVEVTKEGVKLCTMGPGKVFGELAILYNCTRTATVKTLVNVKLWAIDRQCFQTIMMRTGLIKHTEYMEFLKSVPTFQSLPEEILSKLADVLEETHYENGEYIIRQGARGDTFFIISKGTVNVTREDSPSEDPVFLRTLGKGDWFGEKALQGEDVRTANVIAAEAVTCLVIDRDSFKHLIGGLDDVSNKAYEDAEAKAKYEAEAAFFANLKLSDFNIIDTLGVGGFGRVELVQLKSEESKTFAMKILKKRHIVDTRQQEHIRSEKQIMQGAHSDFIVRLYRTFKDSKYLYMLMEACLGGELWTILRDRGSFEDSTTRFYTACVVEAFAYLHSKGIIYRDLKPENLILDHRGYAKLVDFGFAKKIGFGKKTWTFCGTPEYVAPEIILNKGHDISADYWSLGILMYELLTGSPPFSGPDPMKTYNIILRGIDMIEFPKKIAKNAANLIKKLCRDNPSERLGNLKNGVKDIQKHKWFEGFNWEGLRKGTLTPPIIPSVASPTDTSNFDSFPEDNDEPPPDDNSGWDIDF
# [4] = molecular target: Vascular endothelial growth factor receptor 2 (Homo sapiens) (UniProt P35968); assay: Inhibition of human KDR at 1.82 nM by HotSpot assay relative to control
# [5] = molecular target: T4, Activin receptor type-1 (Homo sapiens) (UniProt Q04771); assay: Inhibition of human ALK2 at 1.82 nM by HotSpot assay relative to control
# T4 sequence (whole entry): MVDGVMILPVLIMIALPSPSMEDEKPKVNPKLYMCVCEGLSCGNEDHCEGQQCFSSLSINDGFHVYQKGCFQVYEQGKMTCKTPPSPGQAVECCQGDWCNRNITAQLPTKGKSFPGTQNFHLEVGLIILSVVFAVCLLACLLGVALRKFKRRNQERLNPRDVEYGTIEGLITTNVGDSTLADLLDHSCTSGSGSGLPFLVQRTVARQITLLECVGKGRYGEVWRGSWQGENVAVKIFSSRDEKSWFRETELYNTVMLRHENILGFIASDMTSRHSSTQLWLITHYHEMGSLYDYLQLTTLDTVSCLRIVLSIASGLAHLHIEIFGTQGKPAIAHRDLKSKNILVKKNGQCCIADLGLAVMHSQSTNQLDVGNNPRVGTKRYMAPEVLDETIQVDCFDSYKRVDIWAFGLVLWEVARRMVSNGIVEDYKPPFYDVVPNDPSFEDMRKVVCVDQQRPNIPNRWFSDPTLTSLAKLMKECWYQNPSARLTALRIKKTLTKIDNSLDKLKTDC
# [6] = molecular target: Dual specificity tyrosine-phosphorylation-regulated kinase 1B (Homo sapiens) (UniProt Q9Y463); assay: Inhibition of human DYRK1B at 1.82 nM by HotSpot assay relative to control
# Dual specificity tyrosine-phosphorylation-regulated kinase 1B (Homo sapiens), sequence (Q9Y463 whole entry, looked up): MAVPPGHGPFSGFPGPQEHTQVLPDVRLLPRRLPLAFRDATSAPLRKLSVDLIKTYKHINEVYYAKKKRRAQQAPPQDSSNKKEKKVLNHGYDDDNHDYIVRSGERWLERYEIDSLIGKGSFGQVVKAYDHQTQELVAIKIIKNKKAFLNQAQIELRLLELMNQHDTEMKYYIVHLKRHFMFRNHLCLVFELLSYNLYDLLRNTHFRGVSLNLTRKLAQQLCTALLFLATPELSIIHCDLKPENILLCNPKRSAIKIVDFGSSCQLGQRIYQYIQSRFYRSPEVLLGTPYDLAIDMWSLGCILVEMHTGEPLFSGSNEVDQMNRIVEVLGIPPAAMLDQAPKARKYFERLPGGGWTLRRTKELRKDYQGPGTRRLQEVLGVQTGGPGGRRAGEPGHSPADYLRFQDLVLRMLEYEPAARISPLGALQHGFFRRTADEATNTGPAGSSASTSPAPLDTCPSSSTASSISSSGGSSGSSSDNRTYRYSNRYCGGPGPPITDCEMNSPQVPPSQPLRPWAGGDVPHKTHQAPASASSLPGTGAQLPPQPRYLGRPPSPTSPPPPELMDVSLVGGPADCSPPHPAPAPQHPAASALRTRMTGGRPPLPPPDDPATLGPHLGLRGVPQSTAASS
# Vascular endothelial growth factor receptor 2 (Homo sapiens), sequence (P35968 whole entry): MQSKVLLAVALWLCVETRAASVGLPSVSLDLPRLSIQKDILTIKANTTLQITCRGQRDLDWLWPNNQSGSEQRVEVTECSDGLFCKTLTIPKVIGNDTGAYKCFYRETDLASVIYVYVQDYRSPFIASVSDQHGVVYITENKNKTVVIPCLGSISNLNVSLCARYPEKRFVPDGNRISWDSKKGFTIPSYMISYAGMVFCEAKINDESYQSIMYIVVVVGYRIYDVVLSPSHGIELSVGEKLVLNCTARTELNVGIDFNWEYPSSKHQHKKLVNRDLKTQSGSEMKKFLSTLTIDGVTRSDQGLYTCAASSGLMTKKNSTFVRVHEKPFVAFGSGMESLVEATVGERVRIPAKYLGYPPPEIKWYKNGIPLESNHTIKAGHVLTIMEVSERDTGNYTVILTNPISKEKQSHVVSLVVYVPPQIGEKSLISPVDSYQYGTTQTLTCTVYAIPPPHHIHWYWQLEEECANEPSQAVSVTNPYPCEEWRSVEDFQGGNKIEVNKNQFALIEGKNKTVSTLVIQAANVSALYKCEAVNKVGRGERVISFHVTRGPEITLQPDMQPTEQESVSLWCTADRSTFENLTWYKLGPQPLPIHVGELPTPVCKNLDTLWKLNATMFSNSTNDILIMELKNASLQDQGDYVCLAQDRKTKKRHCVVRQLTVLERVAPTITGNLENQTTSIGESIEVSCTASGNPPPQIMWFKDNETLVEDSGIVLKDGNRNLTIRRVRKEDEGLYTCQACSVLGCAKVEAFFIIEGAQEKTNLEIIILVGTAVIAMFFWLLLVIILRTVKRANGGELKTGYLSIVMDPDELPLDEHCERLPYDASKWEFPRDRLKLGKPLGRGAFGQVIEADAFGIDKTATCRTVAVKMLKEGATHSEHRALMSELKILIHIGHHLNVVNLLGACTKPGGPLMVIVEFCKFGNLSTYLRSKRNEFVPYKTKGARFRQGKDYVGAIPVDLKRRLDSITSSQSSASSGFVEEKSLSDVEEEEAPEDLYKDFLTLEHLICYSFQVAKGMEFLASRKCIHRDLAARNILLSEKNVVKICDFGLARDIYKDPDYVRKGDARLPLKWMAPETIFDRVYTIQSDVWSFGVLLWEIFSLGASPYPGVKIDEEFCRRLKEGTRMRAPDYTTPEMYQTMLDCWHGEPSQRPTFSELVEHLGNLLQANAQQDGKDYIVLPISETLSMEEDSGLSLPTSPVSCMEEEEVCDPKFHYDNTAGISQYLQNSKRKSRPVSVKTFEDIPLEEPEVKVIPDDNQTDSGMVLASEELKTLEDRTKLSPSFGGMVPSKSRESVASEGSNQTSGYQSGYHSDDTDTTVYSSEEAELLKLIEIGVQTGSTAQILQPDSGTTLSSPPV
inhibition [1],inhibition [2],inhibition [3],inhibition [4],inhibition [5],inhibition [6],Compound
-7.85%,-2.29%,–,–,–,–,C[C@]1(O)C[C@@H](c2nc(-c3ccc4ccc(-c5ccccc5)nc4c3)c3c(N)nccn32)C1
–,–,5.76%,3.67%,5.9%,-1.57%,C[C@@]1(C(=O)Nc2ccc(F)nc2)CCCN1c1nc(Nc2cc(C3CC3)n[nH]2)c2cccn2n1
